Measured values from PMC7615677 (Science translational medicine, 2023).
≈ marks a conversion by molar mass, not a printed value. Where “and” joins values, the source holds several entries; their conditions need not be identical. Equal values may be shown once. Read-outs that look alike come from different tables or passages of the source.

Legend:
L. infantum = assay: Promastigote back-transformation assay on organs of treated hamsters; format: in vivo, golden hamsters; conditions: for parasite score, Bone-marrow / parasite score, Liver / parasite score, Spleen: 5 days, individual animals 1-5
Excerpt: Female golden hamsters (5 per treatment group) were infected through intracardiac administration of 2x10^7 L. infantum amastigotes obtained from the spleen of a heavily infected donor hamster. […] After 5-day treatment period, followed by a 10-day wash out period, animals were sacrificed, and parasites burden assessed in the three target organs (liver, spleen, and bone-marrow). For this assessment, organs of individual animals were weighed, except for bone-marrow thus only providing a semi-quantitative evaluation only. Impression smears were Giemsa-stained for microscopic evaluation of amastigote burden, expressed as LDU (= mean number of amastigotes/cell × organ weight in mg) and the results were expressed as a percentage reduction compared to the burdens in the control group (vehicle as placebo). For evaluating the presence of viable residual burden after treatment, a promastigote back-transformation assay was conducted. This consisted of the incubation at ambient temperature of aseptically collected pieces of spleen or liver tissue in 1 mL of promastigote back-transformation medium in 24-well plates. For the bone-marrow, resected femurs were flushed with 1 mL medium. The medium consists of HOMEM pH 6.0 prepared as described elsewhere ([5]) with 10% fetal bovine serum (Gibco), 2.5% penicillin/streptomycin and 1% gentamicin (Merck). A qualitative assessment of the presence of promastigotes was made after 3 and 5 days of incubation and a score was attributed (+, ++ or +++) based on parasite density in the positive wells.
Supplementary Materials and methods
Promastigote transformation assay
For evaluating the presence of viable residual burdens after treatment, a promastigote back-transformation assay is conducted. This test consists of the incubation at ambient temperature of aseptically collected pieces of spleen or liver tissue in 1 mL of promastigote back-transformation medium in 24-well plates. For the bone-marrow, resected femurs are flushed with 1 mL medium. The medium consists of HOMEM pH 6.0 prepared as described elsewhere (1) with 10% fetal bovine serum (Gibco) and 2.5% penicillin/streptomycin and 1% gentamicin (Merck). A qualitative assessment of the presence of promastigotes is made after 3 and 5 days of incubation and a score is attributed (+, ++ or +++) based on parasite density in the positive […]
Supplementary Information on Tables
L. infantum MHOM/FR/96/LEM3323 Cl4 was originally obtained from a French HIV-positive patient (Languedoc area in Southern France) and provided by Dr. Laurence Lachaud of the Centre National de Référence des Leishmanioses (CNRL), Montpellier, France. The miltefosine and paromomycin resistant lines (LEM3323 Cl4 MIL-R and PMM-R) were obtained by successive in vitro selection cycles on intracellular amastigotes (2, 3)

[1] = Solubility in biorelevant buffers; format: physicochemical
Experimental: (§1) The ionization constant (pKa), octanol-pH 7.4 buffer partition coefficient (Log D7.4), solubility in biorelevant buffers (FaSSIF-V2, FeSSIF-V2, FaSSGF and pH 7.4 phosphate buffered saline (PBS)) and Caco-2 permeability were determined according to previously published methods ([10]).

Caco-2 permeability = format: in vitro ADME; conditions: human
Experimental: as §1

Caco-2 cell monolayers = assay: Caco-2 permeability; format: in vitro ADME
Experimental: as §1

[2] = In vitro metabolism, liver microsomes; format: in vitro ADME, mouse
Experimental: Compounds were spiked into microsomal matrix prepared in 0.1 M pH 7.4 phosphate buffer containing magnesium chloride (final concentration of 3.3 mM), equilibrated for 5-10 min at 37°C. The reaction was initiated with the addition of freshly prepared solution of NADPH (final 1.3 mM). Control samples without co-factor were included for comparison. Aliquots of the reaction mixtures were taken periodically over 60 min and quenched with acetonitrile containing internal standards (metolazone and diazepam). Quenched samples were maintained on ice for approximately 20-30 min, centrifuged (for 5 min) and the supernatant was analyzed by LC-MS.
In vitro intrinsic clearance (CLint, μL/min/mg or μL/min/10^6 cells) values were calculated from the apparent first order degradation rate constant divided by the microsome concentration or the hepatocyte cell number (10^6 viable cells/mL). In vitro CLint values were then divided by the fraction unbound in the in vitro test system (to give CLint,u) and scaled to in vivo values (mL/min/kg) using published physiological scaling factors ([28]). Blood clearance in each species was then calculated using the well-stirred model of hepatic extraction (equation 2) where Q is the hepatic blood flow and fu,blood is calculated from fu,plasma/B:P: [2] PredictedCLblood=Q x fu,blood x CLint,u/Q+fu,blood x CLint,u
Blood clearance values were converted to plasma clearance by multiplying by the B:P.

COX1 = molecular target: T1, COX1 (Homo sapiens, UniProt P23219); assay: In vitro pharmacology panel (Eurofins); format: biochemical; conditions: read-out: activity (% of DMSO control)
T1 construct: purchased Eurofins (Cerep/DiscoverX SafetyScreen44 in vitro pharmacology panel)
T1 sequence (P23219 24-599): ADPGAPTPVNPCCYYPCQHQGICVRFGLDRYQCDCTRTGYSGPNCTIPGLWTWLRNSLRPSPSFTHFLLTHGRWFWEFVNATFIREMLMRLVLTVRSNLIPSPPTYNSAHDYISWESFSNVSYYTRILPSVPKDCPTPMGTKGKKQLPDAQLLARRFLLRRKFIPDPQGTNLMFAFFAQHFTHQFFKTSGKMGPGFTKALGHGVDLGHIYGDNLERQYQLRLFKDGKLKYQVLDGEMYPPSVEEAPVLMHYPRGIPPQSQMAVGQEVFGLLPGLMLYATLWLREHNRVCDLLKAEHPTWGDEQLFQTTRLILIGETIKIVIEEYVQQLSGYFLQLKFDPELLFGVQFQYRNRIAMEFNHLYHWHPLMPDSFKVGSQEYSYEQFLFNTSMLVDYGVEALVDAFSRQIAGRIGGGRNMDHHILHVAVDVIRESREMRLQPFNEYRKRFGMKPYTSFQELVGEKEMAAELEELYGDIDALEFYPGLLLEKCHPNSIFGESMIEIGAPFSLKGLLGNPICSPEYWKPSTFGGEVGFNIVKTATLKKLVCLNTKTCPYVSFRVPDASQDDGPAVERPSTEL
Excerpt: (§2) Listed values represent the percent change relative to the DMSO control activity. When an IC50 had to be determined, eight different concentrations were included. All values are the mean of assay readout duplicates.

COX2 = molecular target: T2, COX2 (Homo sapiens, UniProt P35354); assay: In vitro pharmacology panel (Eurofins); format: biochemical; conditions: read-out: activity (% of DMSO control)
T2 construct: purchased Eurofins (Cerep/DiscoverX SafetyScreen44 in vitro pharmacology panel)
T2 sequence (P35354 18-604): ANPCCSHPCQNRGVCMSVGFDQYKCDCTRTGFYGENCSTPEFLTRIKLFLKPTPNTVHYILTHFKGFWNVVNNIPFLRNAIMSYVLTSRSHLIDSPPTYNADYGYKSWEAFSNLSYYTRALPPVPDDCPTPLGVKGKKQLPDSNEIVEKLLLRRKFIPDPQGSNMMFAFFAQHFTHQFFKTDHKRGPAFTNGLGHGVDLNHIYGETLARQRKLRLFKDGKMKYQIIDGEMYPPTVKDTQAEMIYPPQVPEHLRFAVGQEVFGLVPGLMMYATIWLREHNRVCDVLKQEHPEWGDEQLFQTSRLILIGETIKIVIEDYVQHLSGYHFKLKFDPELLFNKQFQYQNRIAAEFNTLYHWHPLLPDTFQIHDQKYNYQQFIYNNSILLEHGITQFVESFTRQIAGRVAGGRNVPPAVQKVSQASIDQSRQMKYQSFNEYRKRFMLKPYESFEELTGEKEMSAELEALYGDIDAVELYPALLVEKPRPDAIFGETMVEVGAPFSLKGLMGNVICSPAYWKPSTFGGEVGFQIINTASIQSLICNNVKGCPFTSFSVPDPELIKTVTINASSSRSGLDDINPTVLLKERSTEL
Excerpt: as §2

Lck kinase = molecular target: T3, Lck kinase (Homo sapiens, UniProt P06239); assay: In vitro pharmacology panel (Eurofins); format: biochemical; conditions: read-out: activity (% of DMSO control)
T3 construct: purchased Eurofins (Cerep/DiscoverX SafetyScreen44 in vitro pharmacology panel)
T3 sequence (P06239 whole entry): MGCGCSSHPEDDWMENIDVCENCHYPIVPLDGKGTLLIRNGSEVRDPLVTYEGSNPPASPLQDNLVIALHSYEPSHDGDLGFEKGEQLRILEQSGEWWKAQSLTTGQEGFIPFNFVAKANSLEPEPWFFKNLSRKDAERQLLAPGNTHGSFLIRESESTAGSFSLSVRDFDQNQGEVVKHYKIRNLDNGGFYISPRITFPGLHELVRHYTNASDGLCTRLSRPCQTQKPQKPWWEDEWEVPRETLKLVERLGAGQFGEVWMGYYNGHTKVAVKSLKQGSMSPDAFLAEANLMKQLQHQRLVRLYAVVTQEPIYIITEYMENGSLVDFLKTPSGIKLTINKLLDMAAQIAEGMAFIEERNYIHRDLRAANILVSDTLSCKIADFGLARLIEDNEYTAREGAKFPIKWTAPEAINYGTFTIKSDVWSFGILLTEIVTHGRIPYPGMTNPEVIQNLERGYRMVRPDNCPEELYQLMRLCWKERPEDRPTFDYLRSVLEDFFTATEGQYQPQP
Excerpt: as §2

PDE3A = molecular target: T4, PDE3A (Homo sapiens, UniProt Q14432); assay: In vitro pharmacology panel (Eurofins); format: biochemical
T4 construct: Eurofins (contract assay)
T4 sequence (Q14432 whole entry): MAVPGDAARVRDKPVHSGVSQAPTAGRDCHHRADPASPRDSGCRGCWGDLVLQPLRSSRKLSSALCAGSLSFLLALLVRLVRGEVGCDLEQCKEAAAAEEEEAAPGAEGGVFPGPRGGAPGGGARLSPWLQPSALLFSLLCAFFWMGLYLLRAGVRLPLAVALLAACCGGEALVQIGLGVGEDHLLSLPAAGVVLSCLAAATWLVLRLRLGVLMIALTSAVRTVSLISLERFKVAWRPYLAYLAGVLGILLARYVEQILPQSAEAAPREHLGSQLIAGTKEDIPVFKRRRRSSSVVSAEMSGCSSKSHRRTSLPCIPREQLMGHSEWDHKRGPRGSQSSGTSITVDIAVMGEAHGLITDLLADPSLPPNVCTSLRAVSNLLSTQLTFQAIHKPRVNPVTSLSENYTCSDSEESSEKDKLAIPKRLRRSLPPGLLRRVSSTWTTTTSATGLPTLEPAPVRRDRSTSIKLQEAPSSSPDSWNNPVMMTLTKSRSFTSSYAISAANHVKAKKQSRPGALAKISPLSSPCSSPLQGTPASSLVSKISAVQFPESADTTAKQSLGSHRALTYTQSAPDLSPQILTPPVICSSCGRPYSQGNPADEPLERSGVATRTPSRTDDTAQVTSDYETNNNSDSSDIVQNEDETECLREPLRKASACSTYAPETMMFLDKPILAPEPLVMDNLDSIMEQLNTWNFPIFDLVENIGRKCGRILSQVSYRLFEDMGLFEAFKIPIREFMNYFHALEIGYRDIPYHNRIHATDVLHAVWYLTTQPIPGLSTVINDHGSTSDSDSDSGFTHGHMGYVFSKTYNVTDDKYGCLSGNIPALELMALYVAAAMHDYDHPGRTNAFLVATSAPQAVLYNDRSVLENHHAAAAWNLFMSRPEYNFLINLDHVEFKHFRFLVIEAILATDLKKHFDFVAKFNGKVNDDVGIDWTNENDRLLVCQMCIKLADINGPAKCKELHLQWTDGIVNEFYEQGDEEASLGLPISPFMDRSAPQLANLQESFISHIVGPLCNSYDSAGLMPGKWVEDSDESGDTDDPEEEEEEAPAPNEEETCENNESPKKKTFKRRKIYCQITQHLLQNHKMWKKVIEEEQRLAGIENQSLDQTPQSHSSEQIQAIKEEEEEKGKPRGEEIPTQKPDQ
Excerpt: as §2

PDE4D2 = molecular target: T5, PDE4D2 (Homo sapiens, UniProt Q08499); assay: In vitro pharmacology panel (Eurofins); format: biochemical
T5 construct: Eurofins (contract assay)
T5 sequence (Q08499 303-809 limits assumed): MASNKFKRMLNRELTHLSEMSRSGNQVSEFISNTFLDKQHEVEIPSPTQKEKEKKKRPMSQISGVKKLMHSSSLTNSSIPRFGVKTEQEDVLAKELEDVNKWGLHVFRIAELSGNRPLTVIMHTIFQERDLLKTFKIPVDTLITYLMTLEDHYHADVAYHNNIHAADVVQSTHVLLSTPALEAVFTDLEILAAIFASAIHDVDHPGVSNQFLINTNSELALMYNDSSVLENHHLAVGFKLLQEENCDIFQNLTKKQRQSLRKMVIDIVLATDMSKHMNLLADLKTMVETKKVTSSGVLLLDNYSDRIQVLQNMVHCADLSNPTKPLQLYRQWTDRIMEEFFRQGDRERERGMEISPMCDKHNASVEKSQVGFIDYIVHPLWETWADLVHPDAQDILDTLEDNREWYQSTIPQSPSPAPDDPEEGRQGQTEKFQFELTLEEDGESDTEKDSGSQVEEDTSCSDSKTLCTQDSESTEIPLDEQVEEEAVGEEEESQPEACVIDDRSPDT
Excerpt: as §2

acetylcholinesterase = molecular target: T6, acetylcholinesterase (Homo sapiens, UniProt P22303); assay: In vitro pharmacology panel (Eurofins); format: biochemical; conditions: read-out: activity (% of DMSO control)
T6 construct: Eurofins (contract assay)
T6 sequence (P22303 32-614): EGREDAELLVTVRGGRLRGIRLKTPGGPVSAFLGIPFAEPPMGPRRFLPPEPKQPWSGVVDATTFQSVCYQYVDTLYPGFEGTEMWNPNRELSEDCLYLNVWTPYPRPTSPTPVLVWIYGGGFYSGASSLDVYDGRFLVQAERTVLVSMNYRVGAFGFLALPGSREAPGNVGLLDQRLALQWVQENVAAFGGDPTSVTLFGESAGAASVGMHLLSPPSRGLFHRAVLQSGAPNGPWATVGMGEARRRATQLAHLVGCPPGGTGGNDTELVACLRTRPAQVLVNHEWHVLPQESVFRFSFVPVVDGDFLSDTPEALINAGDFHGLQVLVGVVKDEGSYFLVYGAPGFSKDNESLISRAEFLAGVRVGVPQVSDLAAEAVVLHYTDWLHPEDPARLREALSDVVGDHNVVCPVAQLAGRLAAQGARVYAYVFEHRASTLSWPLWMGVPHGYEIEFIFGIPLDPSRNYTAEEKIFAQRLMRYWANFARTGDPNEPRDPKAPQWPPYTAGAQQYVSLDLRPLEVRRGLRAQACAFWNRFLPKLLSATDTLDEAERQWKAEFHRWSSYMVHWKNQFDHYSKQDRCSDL
Excerpt: as §2

CaV1.2 = CaV1.2 (Homo sapiens, UniProt Q13936); assay: in vitro
[3] = 10 µM, read-out: activity (% of DMSO control)

Structure (SMILES): Cc1[nH]c2nc(N)nc(C)c2c1-c1ccc(C#N)c2c1OCO2 [DNDI-6174]
- parasite score, Bone-marrow (L. infantum; 3.125 mg/kg bid): ++
- parasite score, Liver (L. infantum; 3.125 mg/kg bid): + (3×) and - (2×)
- parasite score, Spleen (L. infantum; 3.125 mg/kg bid): ++
- parasite score, Bone-marrow (L. infantum; 12.5 mg/kg bid): - and +
- parasite score, Liver (L. infantum; 12.5 mg/kg bid): -
- parasite score, Spleen (L. infantum; 12.5 mg/kg bid): - and +
- parasite score, Bone-marrow (L. infantum; 12.5 mg/kg qd): + (3×) and ++ (2×)
- parasite score, Liver (L. infantum; 12.5 mg/kg qd): + (3×) and - (2×)
- parasite score, Spleen (L. infantum; 12.5 mg/kg qd): ++ (4×) and +
- parasite score, Bone-marrow (L. infantum; 25 mg/kg qd): + and - (4×)
- parasite score, Liver (L. infantum; 25 mg/kg qd): - (4×) and +
- parasite score, Spleen (L. infantum; 25 mg/kg qd): -
- parasite score, Bone-marrow (L. infantum; 50 mg/kg qd): - (4×) and +
- parasite score, Liver (L. infantum; 50 mg/kg qd): - (4×) and +
- parasite score, Spleen (L. infantum; 50 mg/kg qd): - (4×) and +
- emergence of viable promastigotes from recovered organs, in words (L. infantum; DNDI-6174 treated animals): almost all the organs recovered proved to be negative in culture
- solubility ([1]; FaSSGF, pH 1.6, fassgf or other biorelevant, pH 1.6, read-out: Solubility FaSSGF): 1200 µg/mL (≈ 3900 µM)
- solubility ([1]; FaSSIF-V2, pH 6.5, fassif, pH 6.5, read-out: Solubility FaSSIF): 11 µg/mL (≈ 35.8 µM)
- solubility ([1]; FeSSIF-V2, pH 5.8, fessif, pH 5.8, read-out: Solubility FeSSIF): 54 µg/mL (≈ 176 µM)
- Solubility FaSSGF ([1]; pH 1.6): 1190 µg/mL (≈ 3870 µM)
- solubility ([1]; phosphate buffered saline (PBS), pH 7.4, aqueous buffer, pH 7.4, read-out: Solubility PBS): 6.5 µg/mL (≈ 21.2 µM)
- Papp A→B (Caco-2 permeability): 71 ×10⁻⁶ cm/s
- Papp B→A (Caco-2 permeability): 72 ×10⁻⁶ cm/s
- A-B Mass balance (Caco-2 cell monolayers): 98%
- B-A Mass balance (Caco-2 cell monolayers): 96%
- Microsome predicted in vivo CLplasma ([2]; Mouse): 12 mL/min/kg
- In vitro Microsome CLint ([2]; Mouse, 2 independent experiments): 13 ± 0.38 µL/min/mg
- microsomal CLint at 0.5 µM ([2]; mouse, liver microsomes, pH 7.4, Mouse, 2 independent experiments, read-out: In vitro Microsome CLint): 17 ± 0.59 µL/min/mg
- remaining activity at 10 µM (COX1): 115%
- remaining activity at 10 µM (COX2): 137%
- remaining activity at 10 µM (Lck kinase): 100%
- remaining activity at 10 µM (PDE3A; [3]): 30.1%
- IC50 (PDE3A; human PDE3A): 3.36 µM
- remaining activity at 10 µM (PDE4D2; [3]): 27.1%
- IC50 (PDE4D2; human PDE4D2): 6.67 µM
- remaining activity at 10 µM (acetylcholinesterase): 96.8%
- inhibition at 100 µM (CaV1.2): 43%
